{
  "source": "patent US20060276416A1",
  "about": "“Methods and compositions for treating flushing and drug induced weight gain” (Sirtris Pharmaceuticals, Inc., priority 2005, published 2006)",
  "key": {"[1]": {"biological_target": "T1, SIRT1 deacetylase (BIOMOL) (Homo sapiens, UniProt Q96EB6)", "T1 construct": "purchased BIOMOL", "T1 sequence (Q96EB6 1-747)": "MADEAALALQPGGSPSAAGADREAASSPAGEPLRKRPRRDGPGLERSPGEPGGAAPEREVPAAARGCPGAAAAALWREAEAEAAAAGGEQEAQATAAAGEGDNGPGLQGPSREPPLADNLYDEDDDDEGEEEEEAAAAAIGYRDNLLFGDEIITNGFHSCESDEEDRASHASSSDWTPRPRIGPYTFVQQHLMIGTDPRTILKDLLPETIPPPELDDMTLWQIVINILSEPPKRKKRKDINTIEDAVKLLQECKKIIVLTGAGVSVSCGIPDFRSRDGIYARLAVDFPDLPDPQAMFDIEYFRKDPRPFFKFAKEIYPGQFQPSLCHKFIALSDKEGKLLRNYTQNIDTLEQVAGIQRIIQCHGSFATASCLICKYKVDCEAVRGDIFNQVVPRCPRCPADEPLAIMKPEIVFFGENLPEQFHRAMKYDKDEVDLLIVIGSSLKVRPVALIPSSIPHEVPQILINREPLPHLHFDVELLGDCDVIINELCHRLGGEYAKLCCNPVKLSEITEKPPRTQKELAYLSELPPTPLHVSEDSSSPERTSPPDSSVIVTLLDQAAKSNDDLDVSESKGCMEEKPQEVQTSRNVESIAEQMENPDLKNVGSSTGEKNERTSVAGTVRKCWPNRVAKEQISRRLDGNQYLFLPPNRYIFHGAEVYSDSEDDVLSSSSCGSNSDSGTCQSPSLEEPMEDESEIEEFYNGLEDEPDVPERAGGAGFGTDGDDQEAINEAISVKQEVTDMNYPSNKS", "test": "High-throughput SIRT1 screening protocol (Fluor de Lys-SIRT1, 384 well)", "format": "biochemical", "conditions": "positive controls; roughly 50 μM, 200 μM NAD+, 5 μM Fluor de Lys-SIRT1", "description": "The reaction mixture contains (final): 0.5 units/reaction SIRT1 deacetylase (BIOMOL); 200 μM NAD^+; 5 μM Fluor de Lys-SIRT1 substrate (BIOMOL); buffer (25 mM Tris/Cl, pH 8.0, 137 mM NaCl, 2.7 mM KCl, 1 mM MgCl2, and 1 mg/ml BSA). In addition, a reaction mixture containing no enzyme was made so that each well receiving compound has a corresponding “no enzyme control” well. Reactions were performed in black 384 well plates (NUNC) in a final volume of 25 μl/well.\nThe reactions were started by combining enzyme and substrate in a reaction mixture immediately prior to aliquoting in plates (or substrate only for “no enzyme control” plates). Mixture were aliquoted to plates using Biotek μFill (Biotek Instruments). Control mixtures were manually added to designated wells. A library compound was added at a desired concentration by pin transfer to both “with enzyme” and “no enzyme” plates. Compounds were added in at least triplicate (with enzyme reaction in duplicate and no enzyme controls) at a final concentration of roughly 50 μM. The plates were incubated at 37° C. for 30-60 minutes. Then 25 μl of 1× Developer II (BIOMOL) plus 2 mM nicotinamide were added to all wells to stop the reactions. The reactions were left for at least 30 minutes at 37° C. for the signal to develop. The plates were read in a microplate-reading fluorometer capable of excitation at a wavelength in the range of 350-380 nm and detection of emitted light in the range of 440-460 nm. A read time of 0.1 sec per well was used."}, "D. melanogaster": {"tested_on": "D. melanogaster", "test": "D. melanogaster survival (lifespan) assay", "format": "in vivo", "description": "Survival assays were conducted independently with adult D. melanogaster in two laboratories. In the first laboratory, all trials used an yw marked wild-type strain. Larvae were reared on standard cornmeal-sugar-yeast (CSY) agar diet (cornmeal 5%, sucrose 10.5%, SAF yeast 2%, and agar 0.7%). Newly eclosed adults were placed in 1 L demography cages with approximately 75 males and 75 females. Three to four replicate 1 L demography cages were used for each treatment group in each trial. Every two days, dead flies were removed and scored, and food vials were replenished. Food vials contained cornmeal-sugar-yeast diet with SAF yeast as either 2% or 3% by weight. Test compounds in 100 μl of EtOH (or blank EtOH in controls) were mixed into melted aliquots of the adult food media to make a final concentration of 0, 10 or 100 μM. Fresh stock solutions and adult media were prepared weekly. In the second laboratory, lifespan trials were conducted with the wild type strain Canton-S, dSir2^4.5 and dSir2^5.26 (S. Smolik, University of Oregon), dSir2^17 (S. Astrom, Stockholm University, Sweden), and dSir2^KG00871 (Drosophila Stock Center, Bloomington, Ind.). Larvae for all tests were reared on standard cornmeal-sugar-yeast diet. Newly eclosed adults were incubated in plastic shell vials containing 5 ml of 15% sugar-yeast diet (15% SY) or 5% sugar-yeast (5% SY) diet (15% SY: 15% yeast, 15% sucrose, 2% agar; 5% SY: 5% yeast, 5% sucrose, 2% agar as per Ref.^20). In all trials, ˜20 males with ˜20 females were placed into each of 10 vials/treatment group. Every two days, flies were passed into new vials and dead flies were counted. […] Final compound concentrations were 0, 10, 100 or 200 μM. Fresh stock solution and adult media was prepared weekly."}},
  "data": [
    {"smiles": "Oc1ccc(/C=C/c2cc(O)cc(O)c2)cc1", "note": "[Resveratrol, 3,5,4′-Trihydroxy-trans-stilbene]", "values": [
      {"measurement": "Activation of SIRT1", "setting": "[1]", "value": 2.2, "unit": "fold"},
      {"measurement": "Lifespan increase", "setting": "D. melanogaster; Canton-S/dSir2 KG0087, maximum", "value": "up to 17%"},
      {"measurement": "Lifespan extension (in words)", "setting": "D. melanogaster; dSir2 4.5/5.26 (no functional dSir2) or dSir2 17/KG00871 (severely decreased), 100 μM", "value": "failed to extend lifespan"},
      {"measurement": "Increase of longevity (in words)", "setting": "D. melanogaster; flies homozygous for a hypomorphic dSir2 allele", "value": "small but statistically significant amount"},
      {"measurement": "Longevity under restricted diet", "setting": "D. melanogaster; restricted diet", "value": "neither resveratrol nor fisetin further increased longevity"},
      {"measurement": "Lifespan extension", "setting": "D. melanogaster; wild type strains, males and females, independent tests, maximum", "value": "up to 29%"}
    ]}
  ]
}
